Laboratory results as given in patent US6875761B2 (Eisai Co., Ltd., priority 1997, dated 2005).
Structures can show the parent of a compound that is named as a salt.

Experiments:
serotonin 1A receptor = target: T1, serotonin 1A receptor (Rattus norvegicus, UniProt P19327); assay: Binding test on [3H] 8-hydroxy-dipropylaminotetralin, hippocampus receptor fraction; set-up: species or system SD rats; conditions: rat hippocampus receptor fraction, 0.5 nM [3H] 8-OH-DPAT, room temperature 30 min; read-out: 5HT1
T1 construct: To the receptor fraction of the hippocampus were added a test compound and 0.5 nM of [^3H]; 8-hydroxy-dipropylaminotetralin; from tissue; host or cells: rat hippocampus membrane fraction
T1 sequence (P19327 1-422): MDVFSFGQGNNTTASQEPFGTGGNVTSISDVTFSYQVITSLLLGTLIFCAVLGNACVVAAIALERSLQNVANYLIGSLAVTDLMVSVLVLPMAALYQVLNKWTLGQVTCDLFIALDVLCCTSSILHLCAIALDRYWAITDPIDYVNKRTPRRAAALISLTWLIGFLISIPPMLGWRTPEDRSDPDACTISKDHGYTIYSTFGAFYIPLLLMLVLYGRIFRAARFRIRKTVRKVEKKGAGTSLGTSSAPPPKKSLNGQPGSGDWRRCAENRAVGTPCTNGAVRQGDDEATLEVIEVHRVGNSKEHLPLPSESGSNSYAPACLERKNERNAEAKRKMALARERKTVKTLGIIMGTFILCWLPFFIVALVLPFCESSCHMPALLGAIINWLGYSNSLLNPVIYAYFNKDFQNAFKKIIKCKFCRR

serotonin 2 receptor = target: T2, serotonin 2 receptor (Rattus norvegicus, UniProt P14842); assay: Binding test on [3H] ketanserin, cerebral cortex receptor fraction; set-up: species or system SD rats; conditions: 0.3 nM [3H] ketanserin, 37° C. 15 min, read-out: 5HT2
T2 construct: To the receptor fraction of the cerebral cortex were added a test compound and 0.3 nM of [^3H] ketanserin; from tissue; host or cells: rat cerebral cortex membrane fraction
T2 sequence (P14842 whole entry): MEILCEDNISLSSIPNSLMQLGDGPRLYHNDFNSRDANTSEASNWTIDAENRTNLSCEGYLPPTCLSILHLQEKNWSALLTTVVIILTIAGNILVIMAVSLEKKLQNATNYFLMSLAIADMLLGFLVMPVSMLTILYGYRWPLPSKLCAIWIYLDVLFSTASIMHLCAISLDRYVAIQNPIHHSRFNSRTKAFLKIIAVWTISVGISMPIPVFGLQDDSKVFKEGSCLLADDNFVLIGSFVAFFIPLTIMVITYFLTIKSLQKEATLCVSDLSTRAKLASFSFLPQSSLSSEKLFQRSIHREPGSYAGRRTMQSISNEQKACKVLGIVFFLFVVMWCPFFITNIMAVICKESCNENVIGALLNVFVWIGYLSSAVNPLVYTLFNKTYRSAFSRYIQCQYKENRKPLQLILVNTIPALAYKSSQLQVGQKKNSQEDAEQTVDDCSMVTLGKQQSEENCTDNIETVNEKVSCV

α1 adrenalin receptor = assay: Binding test on [3H] prazosin, cerebral cortex receptor fraction; set-up: species or system SD rats; conditions: rat cerebral cortex receptor fraction, about 0.2 nM [3H] prazosin, room temperature 60 min; read-out: α 1

Compound	melting point	Ki (serotonin 1A receptor)	Ki (serotonin 2 receptor)	Ki (α1 adrenalin receptor)
CCC/C(=N\O)c1ccc(-c2cc3ccccc3c(N3CCN(CC)CC3)n2)cc1 (as salt: oxalate) [Example 380, 1-(4-Ethylpiperazin-1-yl)-3-[4-(1-Hydroxyiminobutyl)Phenyl]Isoquinoline]	179.5 to 180 °C			
CCCN(C)C(=O)c1ccc(-c2cc3ccccc3c(N3CCN(CC)CC3)n2)cc1 (as salt: oxalate) [Example 381]	131 to 132 °C			
CCN1CCN(c2nc(-c3ccc(C(C)(C)CCO)cc3)cc3ccccc23)CC1 (as salt: oxalate) [Example 390]	134 to 135 °C			
CCN1CCN(c2nc(-c3ccc4c(c3)CCC4O)cc3ccccc23)CC1 (stereo not shown) (as salt: oxalate) [Example 415, 1-(4-ethylpiperazin-1-yl)-3-(1-hydroxyindan-5-yl)isoquinoline]	193 to 195 °C			
CCN1CCN(c2nc(CCCCOCc3ccccc3)cc3ccccc23)CC1 [Example 1, 3-(4-benzyloxybutyl)-1-(4-ethylpiperazin-1-yl)isoquinoline Dihydrochloride]		0.0212 µM	0.0364 µM	> 2 µM
CCN1CCN(c2nc(-c3ccc(OC)cc3OC)cc3ccccc23)CC1 [Example 12, 3-(2,4-dimethoxyphenyl)-1-(4-ethylpiperazin-1-yl)isoquinolin Dihydrochloride]		0.14 µM	0.00532 µM	4.11 µM
CCN1CCN(c2nc(-c3cc(OC)c(OC)cc3OC)cc3ccccc23)CC1.Cl [Example 16, 1-(4-ethylpiperazin-1-yl)-3-(2,4,5-trimethoxyphenyl)isoquinoline dihydrochloride]	158 to 160 °C	0.03 µM	0.044 µM	
CCC(O)c1ccc(-c2cc3ccccc3c(N3CCN(CC)CC3)n2)cc1 (stereo not shown) [Example 19, 1-(4-ethylpiperazin-1-yl)-3-[4-(1-hydroxypropyl)phenyl]isoquinoline hydrochloride]		0.0069 µM	0.0016 µM	0.373 µM
CCN1CCN(c2nc(-c3ccc(CCCO)cc3)cc3ccccc23)CC1 [Example 20, 1-(4-ethylpiperazin-1-yl)-3-[4-(3-hydroxypropyl)phenyl]isoquinoline hydrochloride]		0.0145 µM	0.0026 µM	0.868 µM
CCN1CCN(c2nc(-c3ccc(CCCO)c(C(N)=O)c3)cc3ccccc23)CC1 [Example 31, 3-[3-carboxamide-4-(3-hydroxypropyl)phenyl]-1-(4-ethylpiperazin-1-yl)isoquinoline]	213 to 218 °C (dec.)	0.0107 µM	0.0303 µM	
CCN1CCN(c2nc(-c3ccc(/C=N\O)cc3)cc3ccccc23)CC1.Cl [Example 60, (Z)-1-(4-Ethylpiperazin-1-Yl)-3-(4-Hydroxyiminomethylphenyl)Isoquinoline Hydrochloride]	239 °C (dec.)	0.0213 µM	0.0091 µM	
CCN1CCN(c2nc(-c3ccc(/C=N/O)cc3)cc3ccccc23)CC1.Cl [Example 61, (E)-1-(4-Ethylpiperazin-1-Yl)-3-(4-Hydroxyiminomethylphenyl)Isoquinoline Hydrochloride]	243 °C (dec.)	0.0117 µM	0.0082 µM	
CCN1CCN(c2nc(CCc3ccc(OCCO)cc3)cc3ccccc23)CC1 [Example 109, 1-(1-Ethylpiperazin-4-yl)-3-[4-(2-hydroxyethoxy)phenethyl]isoquinoline]				> 2 µM
COc1ccc(-c2cc3ccccc3c(N3CCN(CCO)CC3)n2)cc1 [Example 242, 1-[4-(2-hydroxyethyl)piperazin-1-yl]-3-(4-methoxyphenyl)isoquinoline Dihydrochloride]				1.79 µM
CCN1CCN(c2nc(-c3ccc(OCCO)cc3)cc3sccc23)CC1 [Example 286, dihydrochloride]				0.305 µM
CCCN1CCN(c2nc(-c3ccc(OCC(C)(C)O)cc3)cc3sccc23)CC1 [Example 289, 6-[4-(2-methyl-2-hydroxypropoxy)phenyl]-4-(4-propylpiperazin-1-yl)thieno[3,2-c]pyridine hydrochloride]				1.31 µM

The next lines start with results.

melting point	Compound	Ki (serotonin 1A receptor)	Ki (serotonin 2 receptor)	Ki (α1 adrenalin receptor)
178 to 181 °C (dec.)	CCN1CCN(c2nc(Sc3ccccn3)cc3ccccc23)CC1 (as salt: oxalate) [Example 378, 1-(4-Ethylpiperazin-1-yl)-3-(2-Pyridylthio)Isoquinoline Oxalate]			
116 to 118 °C	CCN1CCN(c2nc(-c3ccc(C(=O)N(C)CCO)cc3)cc3ccccc23)CC1 (as salt: oxalate) [Example 382, 1-(4-Ethylpiperazin-1-yl)-3-{4-[N-(2-Hydroxyethyl)-N-Methylcarbamoyl]Phenyl}Isoquinoline]			
106 to 108 °C	CCN1CCN(c2nc(-c3ccc(C(C)CCO)cc3)cc3ccccc23)CC1 (stereo not shown) (as salt: oxalate) [Example 383, 1-(4-Ethylpiperazin-1-yl)-3-[4-(3-Hydroxy-1-Methylpropyl)Phenyl]Isoquinoline Oxalate]			
195 to 196 °C	CCN1CCN(c2nc(-c3ccc(CC(C)CO)cc3)cc3ccccc23)CC1 (stereo not shown) (as salt: oxalate) [Example 386, 1-(4-Ethylpiperazin-1-yl)-3-[4-(3-Hydroxy-2-Methylpropyl)Phenyl]Isoquinoline Oxalate]			
194 to 195 °C	CCN1CCN(c2nc(-c3ccc(CC(C)(C)CO)cc3)cc3ccccc23)CC1 (as salt: oxalate) [Example 389, 1-(4-Ethylpiperazin-1-yl)-3-[4-(3-Hydroxy-2,2-Dimethylpropyl)Phenyl]Isoquinoline Oxalate]			
174 to 175 °C	CCN1CCN(c2nc(C(O)c3cccnc3)cc3ccccc23)CC1 (stereo not shown) (as salt: oxalate) [Example 413, 1-(4-ethylpiperazin-1-yl)-3-[(3-pyridyl)hydroxymethyl]isoquinoline]			
124.5 to 125.5 °C	CCN1CCN(c2nc(-c3ccc(C#CC(C)(C)O)cc3)cc3sccc23)CC1 (as salt: oxalate) [Example 466, 4-(4-ethylpiperazin-1-yl)-6-[4-(3-hydroxy-3-methyl-1-butynyl)phenyl]thieno[3,2-c]pyridine oxalate]			
148 to 149.5 °C	CCN1CCN(c2nc(-c3ccc([C@@H]4C[C@H](O)CCO4)cc3)cc3ccccc23)CC1 (relative stereo) (as salt: hydrochloride) [Example 401, 1-(4-Ethylpiperazin-1-yl)-3-[4-(cis-4-Hydroxytetrahydropyran-2-yl)Phenyl]Isoquinoline Dihydrochloride]			
151 to 152.5 °C (dec.)	CCN1CCN(c2nc(-c3ccc([C@@H]4C[C@@H](O)CCO4)cc3)cc3ccccc23)CC1 (relative stereo) (as salt: hydrochloride) [Example 402, 1-(4-Ethylpiperazin-1-yl)-3-[4-(trans-4-Hydroxytetrahydropyran-2-yl)Phenyl]Isoquinoline Dihydrochloride]			
157 to 159 °C	CCN1CCN(c2nc(-c3ccc([C@@H]4C[C@H](O)CCO4)cc3)cc3ccsc23)CC1 (relative stereo) (as salt: hydrochloride) [Example 454, 7-(4-Ethylpiperazin-1-yl)-5-[4-(cis-4-hydroxytetrahydropyran-2-yl)phenyl]thieno[2,3-c]pyridine dihydrochloride]			
146 to 148 °C	CCN1CCN(c2nc(-c3ccc([C@@H]4C[C@@H](O)CCO4)cc3)cc3ccsc23)CC1 (relative stereo) (as salt: hydrochloride) [Example 455, 7-(4-ethylpiperazin-1-yl)-5-[4-(trans-4-hydroxytetrahydropyran-2-yl)phenyl]thieno[2,3-c]pyridine dihydrochloride]			
136 to 140 °C	CCN1CCN(c2nc(-c3ccc(OCC(C)O)cc3)cc3cccnc23)CC1 (stereo in doubt) (as salt: hydrochloride) [Example 246, 8-(1-ethylpiperazin-4-yl)-6-{4-[(S)-2-hydroxypropoxy}phenyl]-1,7-naphthyridine Dihydrochloride]			
124 to 125 °C	CCN1CCN(c2nc(-c3ccc(O[C@H](C)CO)cc3)cc3sccc23)CC1 (stereo in doubt) (as salt: hydrochloride) [Example 463, 4-(4-ethylpiperazin-1-yl)-6-[4-(2-hydroxy-1-methylethoxy)phenyl]thieno[3,2-c]pyridine dihydrochloride]			
180 to 182 °C	CCN1CCN(c2nc(C=C(COC)c3ccccc3)cc3ccccc23)CC1 (stereo in doubt) (as salt: oxalate) [Example 208, 3-[(E)-2-Methoxymethyl-2-Phenylethenyl]-1-(4-Ethylpiperazin-1-Yl)Isoquinoline Oxalate]			
251 to 253 °C	CCN1CCN(c2nc(-c3ccc(C4CCOCC4)s3)cc3ccccc23)CC1.Cl [Example 166, 3-[2-(tetrahydropyran-4-yl]thiophen-5-yl]-1-(4-ethylpiperazin-1-yl)isoquinoline hydrochloride]	0.0819 µM	0.0115 µM	
